Values after ≈ are worked out from the molar mass of the structure shown. Structures can show the parent of a compound that is named as a salt. Where two headings read alike, the source gives them in different places.
Tests used:
[1] = extent of activity of DPH; cited from earlier work
[2] = tested on: ventricular rate and rhythm; experiment: Antiarrhythmic activity: protection against chloroform-induced ventricular arrhythmia in mice (Lawson); assay type: in vivo; conditions: Mus musculus, ip, 10 min; intraperitoneal, 10 min before chloroform; protected = ventricular rate not exceeding 100 contractions in 30 s; groups of 5 mice; parentheses = 95% confidence limits; read-out: ED50 (95% CL)
Method: The antiarrhythmic activity of the compounds of this invention, specifically those enumerated in the Summary and presented as the above examples, was compared to that of diphenylhydantoin (I), 3-(3-diethylaminopropyl)- 5,5-diphenylhydantoin (II), 3-[3-(1-piperidyl)-propyl]- 5,5-diphenylhydantoin (III), and 3-(3-morpholinopropyl)-5,5-diphenylhydantoin (IV).
(§1) The tests compounds were administered to groups consisting of 5 mice in varying intraperitoneal doses. Ten minutes after administration of a given dose of a compound, a mouse was transferred to a covered 300 ml glass beaker which contained a wad of cotton saturated with about 20 ml of chloroform. The animal was observed closely and removed from the beaker immediately after respiratory arrest. The heart was quickly exposed by making an incision through the abdomen, diaphragm, thorax and pericardium for visual inspection of ventricular rate and rhythm. Ventricular contractions were counted for 30 seconds. According to the procedure reported by Lawson (J. Pharmacol. Exp. Therap., 160:22 [1968]), animals with a ventricular rate not exceeding 100 contractions during the 30 second observation period were considered protected. Results obtained with each dose were used to calculate the mean effective doses (ED50) after the method of Litchfield and Wilcoxon (J. Pharmacol. Exp. Therap. 96: 99-113 [ 1949]).
In Table A, the compounds of this invention are listed by the arabic numeral assigned in the Summary and the above corresponding Example Number; the Roman numerals refer to the compounds so designated above in this Example and in the Description of the Prior Art.

in vivo = assay type: in vivo; conditions: intraperitoneal; for MLD (Minimum Lethal Dose): deaths before exposure to chloroform; for selectivity ratio: mouse, in vivo, ip, calculated with Minimum Lethal Dose data, read-out: MLD/ED50 (Therapeutic Index)
Method: as §1

Guinea pig atria = experiment: Refractory period in isolated atria, electrical stimulation (Dawes); conditions: Cavia porcellus, read-out: EC50 (amount necessary for increasing the minimum interval by 50 percent over control values)
Method: The effect of the compounds of this invention on the refractory period in the atrium was studied and compared to that hydantoin according to the procedure described by Dawes (Brit. J. Pharmacol., 1: 90, [1946]).
Guinea pig atria, suspended in an isolated organ chamber, were stimulated electrically at increasing frequencies while the resulting mechanical contractions were recorded. The minimum interval between two consecutive stimuli necessary for eliciting a mechanical response was determined before and after incubation with varying concentrations of the test compounds. The minimum interval thus determined is an indirect measure of the refractory period in the tissue, and a prolongation of this interval indicates an increased refractory period. From the increase in minimum interval observed with each concentration, the amount necessary for increasing the interval by 50 percent over control values (EC50) was determined for each compound.

heart = conditions: prior art; cited from earlier work
[3] = prior art, cited from earlier work
[4] = guinea pig atria, electrical stimulation, indirect measure of refractory period

SMILES: Nc1ccc(C2(c3ccccc3)NC(=O)NC2=O)cc1 (centres unmarked) [5-(4-aminophenyl)-5-phenylhydantoin]
- activity relative to DPH [1]: 50%

SMILES: Cl.O=C1NC(c2ccc(Cl)cc2)(c2ccc(Cl)cc2)C(=O)N1CCCN1CCC(c2ccccc2)CC1 [Compound 8, 3-[3-(4-phenyl-1-piperidyl)propyl]-5,5-di(4-chlorophenyl)hydantoin hydrochloride]
- ED50 [2]: 75 mg/kg
- MLD (Minimum Lethal Dose) (in vivo): > 178 mg/kg
- selectivity ratio (in vivo): > 2.28
- EC50 (Guinea pig atria; [4]): > 10 µg/mL

SMILES: Cc1ccc(C2(c3ccc(C)cc3)NC(=O)N(CCCN3CCC(O)(c4ccccc4)CC3)C2=O)cc1 [Compound 18, 3-[3-(4-hydroxy-4-phenyl-1-piperidyl)propyl]-5,5-di-(4-tolyl)hydantoin]
- ED50 [2]: 24 mg/kg
- MLD (Minimum Lethal Dose) (in vivo): > 100 mg/kg
- selectivity ratio (in vivo): > 4.17
- EC50 (Guinea pig atria): 1.9 µg/mL (≈ 3.82 µM)

SMILES: O=C1NC(c2ccccc2)(c2ccccc2)C(=O)N1CCN1CC=C(c2ccccc2)CC1 [Compound 4, 5,5-diphenyl-3-[2-(4-phenyl-1,2,3,6-tetrahydropyridyl)ethyl]hydantoin hydrochloride]
- ED50 [2]: 96 mg/kg
- MLD (Minimum Lethal Dose) (in vivo): > 178 mg/kg
- selectivity ratio (in vivo): > 1.85
- EC50 (Guinea pig atria): 5.7 µg/mL

SMILES: Nc1ccc(C2(c3ccccc3)NC(=O)N(CCCN3CCC(c4ccccc4)CC3)C2=O)cc1 (centres unmarked) [Compound 15, 3-[3-(4-phenyl-1-piperidyl)propyl]-5-(4-aminophenyl)-5-phenylhydantoin]
- ED50 [2]: 3.4 mg/kg
- MLD (Minimum Lethal Dose) (in vivo): > 100 mg/kg
- selectivity ratio (in vivo): > 29.4
- EC50 (Guinea pig atria; [4]): 3.7 µg/mL (≈ 7.9 µM)

SMILES: O=C1NC(c2ccccc2)(c2ccccc2)C(=O)N1CCCN1CCCCC1 [III, 3-[3(1-piperidyl)propyl]-5,5-diphenylhydantoin, reference compound]
- ED50 [2]: 19 mg/kg
- MLD (Minimum Lethal Dose) (in vivo): 31 mg/kg
- selectivity ratio (in vivo): 1.63

SMILES: Cc1ccc(C2(c3ccc(C)cc3)NC(=O)N(CCCN3CCC(c4ccccc4)CC3)C2=O)cc1 [Compound 13, 3-[3-(4-phenyl-1-piperidyl)propyl]-5,5-di(4-tolyl)hydantoin]
- ED50 [2]: 4.5 mg/kg
- MLD (Minimum Lethal Dose) (in vivo): > 100 mg/kg
- selectivity ratio (in vivo): > 22.2
- EC50 (Guinea pig atria; [4]): > 10 µg/mL

SMILES: Cl.O=C1NC(c2ccccc2)(c2ccc(Br)cc2)C(=O)N1CCCN1CCC(c2ccccc2)CC1 (centres unmarked) [Compound 11, 3-[3-(4-phenyl-1-piperidyl)propyl]-5-(4-bromophenyl)-5-phenylhydantoin hydrochloride]
- ED50 [2]: 33.5 mg/kg
- MLD (Minimum Lethal Dose) (in vivo): > 100 mg/kg
- selectivity ratio (in vivo): > 2.98
- EC50 (Guinea pig atria; [4]): 4 µg/mL

SMILES: O=C1NC(=O)C(c2ccccc2)(c2ccccc2)N1 [I, 5,5-diphenyl-2,4-imidazolidinedione]
- ED50 [2]: 394 mg/kg
- MLD (Minimum Lethal Dose) (in vivo): 1000 mg/kg
- EC50 (Guinea pig atria; [4]): 20 µg/mL (≈ 79.3 µM)
- action on ventricular arrhythmias induced by digitalis (heart): antagonize ventricular arrhythmias induced by digitalis
- atrio-ventricular nodal conduction (heart): enhances atrio-ventricular nodal conduction
- effective refractory period (heart): reduces the effective refractory period
- ventricular automaticity (heart): depresses ventricular automaticity
- side effects of large doses ([3]; large doses): atrio-ventricular blockage, bradycardia, or even cardiac arrest
- untoward side effects [3]: dizziness, nausea, emesis, nystigmus, and ataxia

SMILES: Cl.O=C1NC(c2ccccc2)(c2ccccc2)C(=O)N1CCCN1CCC(O)(c2ccccc2)CC1 [Compound 5, 5,5-diphenyl-3-[3-(4-hydroxy-4-phenyl-1-piperidyl)propyl]hydantoin hydrochloride]
- ED50 [2]: 5.8 mg/kg
- MLD (Minimum Lethal Dose) (in vivo): 31 mg/kg
- selectivity ratio (in vivo): 5.35
- EC50 (Guinea pig atria): > 10 µg/mL

SMILES: O=C1NC(c2ccccc2)(c2ccccc2)C(=O)N1CCCN1CCOCC1 [IV, 3-(3-morpholinopropyl)-5,5-diphenylhydantoin, reference compound]
- ED50 [2]: 76 mg/kg
- MLD (Minimum Lethal Dose) (in vivo): 178 mg/kg
- selectivity ratio (in vivo): 2.34

SMILES: O=C(O)/C=C\C(=O)O.O=C1NC(c2ccccc2)(c2ccccc2)C(=O)N1CCCN1CCN(c2ccccc2)CC1 [Compound 1, 3-[3-(4-phenyl-1-piperazinyl)propyl]-5,5-diphenylhydantoin maleate]
- ED50 [2]: 16.4 mg/kg
- MLD (Minimum Lethal Dose) (in vivo): > 160 mg/kg
- selectivity ratio (in vivo): > 9.77
- EC50 (Guinea pig atria; [4]): 4.4 µg/mL

SMILES: CCN(CC)CCCN1C(=O)NC(c2ccccc2)(c2ccccc2)C1=O [II, 3-(3-diethylaminopropyl)-5,5-diphenylhydantoin, reference compound]
- ED50 [2]: 14 mg/kg
- MLD (Minimum Lethal Dose) (in vivo): 56 mg/kg
- selectivity ratio (in vivo): 4

SMILES: Cc1ccc(C2(c3ccccc3)NC(=O)N(CCCN3CCC(c4ccccc4)CC3)C2=O)cc1.O=C(O)/C=C\C(=O)O (centres unmarked) [Compound 12, 3-[3-(4-phenyl-1-piperidyl)propyl]-5-phenyl-5-(4-tolyl)hydantoin maleate]
- ED50 [2]: 19.5 mg/kg
- MLD (Minimum Lethal Dose) (in vivo): > 100 mg/kg
- selectivity ratio (in vivo): > 5.13
- EC50 (Guinea pig atria; [4]): 4.8 µg/mL

SMILES: O=C1NC(c2ccccc2)(c2ccc([N+](=O)[O-])cc2)C(=O)N1CCCN1CCC(c2ccccc2)CC1 (centres unmarked) [Compound 14, 3-[3-(4-phenyl-1-piperidyl)propyl]-5-(4-nitrophenyl)-5-phenylhydantoin]
- ED50 [2]: 10.5 mg/kg
- MLD (Minimum Lethal Dose) (in vivo): > 100 mg/kg
- selectivity ratio (in vivo): > 9.52
- EC50 (Guinea pig atria; [4]): 8.3 µg/mL (≈ 16.6 µM)

SMILES: CC(C)(C)NCC(O)CN1C(=O)NC(c2ccccc2)(c2ccccc2)C1=O.Cl (centres unmarked) [Compound 6, 3-(3-t-butylamino-2-hydroxypropyl)-5,5-diphenylhydantoin hydrochloride]
- ED50 [2]: 9.4 mg/kg
- MLD (Minimum Lethal Dose) (in vivo): 100 mg/kg
- selectivity ratio (in vivo): 10.6
- EC50 (Guinea pig atria; [4]): 1.5 µg/mL

SMILES: O=C1NC(c2ccccc2)(c2ccccc2)C(=O)N1CCCN1CCC(c2ccccc2)CC1 [Compound 2, 3-[3-(4-phenyl-1-piperidyl)propyl]-5,5-diphenylhydantoin]
- ED50 [2]: 13.5 mg/kg
- MLD (Minimum Lethal Dose) (in vivo): 320 mg/kg
- selectivity ratio (in vivo): 23.7
- EC50 (Guinea pig atria; [4]): 1.1 µg/mL (≈ 2.43 µM)

SMILES: COc1ccc(C2(c3ccc(OC)cc3)NC(=O)N(CCCN3CCC(c4ccccc4)CC3)C2=O)cc1.Cl [Compound 10, 3-[3-(4-phenyl-1-piperidyl)propyl]-5,5-di(4-methoxyphenyl)hydantoin hydrochloride]
- ED50 [2]: 34 mg/kg
- MLD (Minimum Lethal Dose) (in vivo): > 178 mg/kg
- selectivity ratio (in vivo): > 5.24
- EC50 (Guinea pig atria; [4]): 6.4 µg/mL
